Here are results for three compounds from patent EP4810052A2, “HCRHR2 SELECTIVE POLYPEPTIDES” (Gubra A/S, priority 2023, dated 2026).

Starred links: 1 amine or outer side, 2 acyl side, 3 side chain; linkers in the order of their positions; H or OH if unused. Non-standard residues stand in square brackets, D forms with d. Residues, ends and D or L forms follow the SMILES beside them. Groups on a side chain read outwards from the residue. *: point of attachment. C20 diacid = O=C(O)CCCCCCCCCCCCCCCCCCC(=O)*; γGlu = O=C(O)[C@H](CCC(=O)[*:2])N[*:1]; NMeI = CC[C@H](C)[C@H](NC)C(=O)O; Nle = CCCC[C@H](N)C(=O)O; AEEA = NCCOCCOCC(=O)O; Aib = CC(C)(N)C(=O)O

For data set [1] the following is noted: pH 7.5.
A short description of data set [2]: PK in mice. Type of data set: in vivo. Particulars: Mouse. Further details: T½ / MRT: unit: h. Here is the method:
Lean male NMRI/RjHan mice were obtained from JanVier (JanVier Labs, France) at 6 weeks of age. The animals were single housed under a 12/12 h dark-light cycle, light off at 3 PM. Room temperature was controlled to 22°C ± 1°C, with 60 % ± 20% humidity. Animals had ad libitum access to regular rodent chow (Altromin 1324, Brogaarden, Denmark) and tap water.
After 2 weeks of acclimatization, the animals were randomized into treatment groups (n=9 per group) based on body weight. Animals were dosed IV with one peptide and SC with another peptide (15 or 50 nmol/kg) Plasma samples were collected for PK analysis at times 0.17, 1, 3, 6, 24, 30, 48, 72 and 96 hours post dosing in a sparse sampling design with 3 mice per group per timepoint. Plasma samples were analyzed using LC-MSMS and PK parameters were estimated by Non-Compartmental Analysis (NCA).

Data set [3] in a line: Thioflavin T fibril formation assay of purified peptides. Format: physicochemical. Further details: key: Amyloid fibril formation detected by an increase in ThT fluorescence was denoted with "Yes"; samples without increasing ThT fluorescence hence not forming amyloid fibrils were denoted "No". The gist of the method: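 Compounds at 200 µM in 50 mM phosphate buffer at the stated pH values, or at 200 µM in semaglutide drug product adjusted to pH 7.4, with 4 µM ThT final. Fibrillation followed as ThT fluorescence (ex 450/em 480 nm) over 96 h at 40°C, with 5 min shaking at 700 rpm alternating with 5 min rest; triplicates.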

Data set [4] in a line: PK in rats. Format: in vivo. Further details: T½ / MRT: unit not given here. The following applies: Rat. The gist of the method:
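Lean male Sprague Dawley rats (n = 3 per group) got a two-peptide combination at 50 nmol/kg IV and SC. Plasma was sampled from 0.17 to 96 h post dose and analysed by LC-MSMS. PK parameters came from non-compartmental analysis.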

The nature of data set [5]: Chemical stability of purified peptides (RP-UHPLC main peak purity loss). Type of data set: physicochemical. The gist of the method:
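Peptides at about 1.0 mg/ml in 50 mM phosphate buffer pH 7.5, or pH-adjusted for the pH series, were incubated at 40 °C for 14 and 28 days. Main-peak purity was taken as main-peak area over total area by RP-UHPLC (UV 215 nm, C8, 50 °C). Purity loss was calculated versus T0.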

For the compound `CC[C@H](C)[C@H](NC)C(=O)N[C@H](C(=O)N[C@@H](CC(C)C)C(=O)N[C@@H](CO)C(=O)N[C@@H](CC(C)C)C(=O)N[C@@H](CC(=O)O)C(=O)N[C@H](C(=O)N1CCC[C@H]1C(=O)N[C@H](C(=O)NCC(=O)N[C@@H](CC(C)C)C(=O)N[C@@H](CC(C)C)C(=O)N[C@@H](CCC(N)=O)C(=O)N[C@H](C(=O)N[C@@H](CC(C)C)C(=O)N[C@@H](CC(C)C)C(=O)N[C@@H](CCC(=O)O)C(=O)N[C@@H](CCC(N)=O)C(=O)N[C@@H](C)C(=O)N[C@@H](CCCNC(=N)N)C(=O)N[C@@H](C)C(=O)N[C@@H](CCCNC(=N)N)C(=O)N[C@@H](C)C(=O)N[C@@H](C)C(=O)N[C@@H](CCCNC(=N)N)C(=O)N[C@@H](CCC(=O)O)C(=O)N[C@@H](CCC(N)=O)C(=O)N[C@@H](C)C(=O)N[C@@H](CCCCNC(=O)COCCOCCNC(=O)COCCOCCNC(=O)CC[C@H](NC(=O)CC[C@H](NC(=O)CCCCCCCCCCCCCCCCCCC(=O)O)C(=O)O)C(=O)O)C(=O)N[C@H](C(=O)N[C@@H](CC(N)=O)C(=O)N[C@@H](C)C(=O)N[C@@H](CCC(=O)O)C(=O)N[C@H](C(=O)N[C@@H](CC(C)C)C(=O)N[C@@H](C)C(=O)N[C@@H](CCC(=O)O)C(=O)N[C@H](C(N)=O)C(C)C)[C@@H](C)CC)[C@@H](C)O)[C@@H](C)CC)[C@@H](C)CC)C(C)C)C(C)C` [SEQ ID NO: 5] (H-[NMeI]VLSLDVPIGLLQILLEQARARAAREQAK([AEEA-AEEA-γGlu-γGlu-C20 diacid])TNAEILAEV-NH2), the “Solubility pH 7.5, target conc. =10 mg/mL (measured mg/mL)” value in data set [1] came to 11 mg/mL. Moreover, the MRT in data set [2] turned out to be 21; in data set [4], 7.9. In addition, the T½ was determined as 14.3 in data set [2] and 8.6 in data set [4]. Besides, the “Fibrillation (pH 7.5)” value in data set [3] (pH 7.5, ThT assay) was “No”.
As to `CC[C@H](C)[C@H](N)C(=O)N[C@H](C(=O)N[C@@H](CC(C)C)C(=O)N[C@@H](CO)C(=O)N[C@@H](CC(C)C)C(=O)N[C@@H](CC(=O)O)C(=O)N[C@H](C(=O)N1CCC[C@H]1C(=O)N[C@H](C(=O)NCC(=O)N[C@@H](CC(C)C)C(=O)N[C@@H](CC(C)C)C(=O)N[C@@H](CCC(N)=O)C(=O)N[C@H](C(=O)N[C@@H](CC(C)C)C(=O)N[C@@H](CC(C)C)C(=O)N[C@@H](CCC(=O)O)C(=O)N[C@@H](CCC(N)=O)C(=O)N[C@@H](C)C(=O)N[C@@H](CCCNC(=N)N)C(=O)N[C@@H](C)C(=O)N[C@@H](CCCNC(=N)N)C(=O)N[C@@H](C)C(=O)N[C@@H](C)C(=O)N[C@@H](CCCNC(=N)N)C(=O)N[C@@H](CCC(=O)O)C(=O)N[C@@H](CCC(N)=O)C(=O)N[C@@H](C)C(=O)N[C@H](C(=O)N[C@@H](CCCCNC(=O)COCCOCCNC(=O)COCCOCCNC(=O)CC[C@H](NC(=O)CC[C@H](NC(=O)CCCCCCCCCCCCCCCCCCC(=O)O)C(=O)O)C(=O)O)C(=O)N[C@@H](CC(N)=O)C(=O)N[C@@H](C)C(=O)N[C@@H](CCC(=O)O)C(=O)N[C@H](C(=O)N[C@@H](CC(C)C)C(=O)N[C@@H](C)C(=O)N[C@@H](CCC(=O)O)C(=O)N[C@H](C(N)=O)C(C)C)[C@@H](C)CC)[C@@H](C)O)[C@@H](C)CC)[C@@H](C)CC)C(C)C)C(C)C` [SEQ ID NO: 4] (H-IVLSLDVPIGLLQILLEQARARAAREQATK([AEEA-AEEA-γGlu-γGlu-C20 diacid])NAEILAEV-NH2), the “Solubility pH 7.5, target conc. =10 mg/mL (measured mg/mL)” value in data set [1] is listed as 9.1 mg/mL. In data set [2], this compound showed an MRT of 18.2 and a T½ of 14.8. Moreover, the “Fibrillation (pH 7.5)” value in data set [3] (pH 7.5, ThT assay) is on record as “No”. For the same compound, the “Chemical stability at pH 7.5 after 14 days at 40°C (% degradation)” value in data set [5] (pH 7.5, 40°C, 14 days, first value of cell) is -1.3%. The “Chemical stability at pH 7.5 after 28 days at 40°C (% degradation)” value in data set [5] (pH 7.5, 40°C, 28 days, second value of cell) is -3.9%. Also, in data set [4], the MRT amounted to 6.4 and the T½ amounted to 5.3.
For `CCCC[C@H](NC(=O)[C@@H](NC(=O)[C@H](CCC(=O)O)NC(=O)[C@H](C)NC(=O)[C@H](CC(N)=O)NC(=O)C(C)(C)NC(=O)[C@H](CCCCNC(=O)COCCOCCNC(=O)COCCOCCNC(=O)CC[C@H](NC(=O)CC[C@H](NC(=O)CCCCCCCCCCCCCCCCCCC(=O)O)C(=O)O)C(=O)O)NC(=O)[C@H](C)NC(=O)[C@H](CCC(N)=O)NC(=O)[C@H](CCC(=O)O)NC(=O)[C@H](CCCNC(=N)N)NC(=O)[C@H](C)NC(=O)[C@H](C)NC(=O)[C@H](CCCNC(=N)N)NC(=O)[C@H](C)NC(=O)[C@H](CCCNC(=N)N)NC(=O)[C@H](C)NC(=O)[C@H](CCC(N)=O)NC(=O)[C@H](CO)NC(=O)[C@H](CC(C)C)NC(=O)[C@H](CC(C)C)NC(=O)[C@@H](NC(=O)[C@H](CCC(N)=O)NC(=O)[C@H](CC(C)C)NC(=O)[C@H](CC(C)C)NC(=O)CNC(=O)[C@@H](NC(=O)[C@@H]1CCCN1C(=O)[C@@H](NC(=O)[C@H](CC(=O)O)NC(=O)[C@H](CC(C)C)NC(=O)[C@H](CO)NC(=O)[C@H](CC(C)C)NC(=O)[C@@H](NC(=O)[C@@H](NC)[C@@H](C)CC)C(C)C)C(C)C)[C@@H](C)CC)[C@@H](C)CC)[C@@H](C)CC)C(=O)N[C@@H](C)C(=O)N[C@@H](CCC(=O)O)C(=O)N[C@H](C(N)=O)C(C)C` [compound 132] (H-[NMeI]VLSLDVPIGLLQILLSQARARAAREQAK([AEEA-AEEA-γGlu-γGlu-C20 diacid])[Aib]NAEI[Nle]AEV-NH2), the “Solubility pH 7.5, target conc. =10 mg/mL (measured mg/mL)” value in data set [1] was found to be 11 mg/mL. In data set [2], this compound showed an MRT of 16 and a T½ of 11.2. In data set [3] (pH 7.5), the “Fibrillation (pH 7.5)” value is “No”. For the same compound, the “Chemical stability at pH 7.5 after 14 days at 40°C (% degradation)” value in data set [5] (pH 7.5, 14 days, 40°C) is given as -1.6%. In addition, the “Chemical stability at pH 7.5 after 28 days at 40°C (% degradation)” value in data set [5] (pH 7.5, 28 days, 40°C) is given as -1.3%. Moreover, in data set [4], the MRT stood at 6.2 and the T½ came to 4.8.
